These results are taken from the NIST ThermoML archive (doi:10.1016/j.fluid.2010.01.025).

± gives the expanded uncertainty stated by the source.

The conditions of series [1]: Crystal; DTA.
A short description of series [2]: Molar enthalpy of transition or fusion. The settings on record: Crystal; DSC.

For `CCCC[n+]1cccc(C)c1.Cc1ccc(S(=O)(=O)[O-])cc1` [1-butyl-3-methylpyridinium 4-methylbenzenesulfonate], in series [1], the Normal melting temperature was determined as 42.7 ± 0.4 °C. Also, the “Molar enthalpy of transition or fusion” value in series [2] was 2.71 ± 0.0837 kcal/mol.
